This assay concerns CEM cells HIV-1 protection, formazan growth assay. Put plainly: NCI AIDS Antiviral Assay. Particulars: for IC50: measured here: growth of uninfected CEM cells. The essentials:
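Category rules: moderately active means at least 50% protection on retest, and confirmed active means 100% protection reproducibly. The underlying data came from a formazan growth assay in HIV-1-infected CEM cells.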

Several values for one entry are separate records, joined by “and”; a condition that tells them apart may be missing. Identical values can stand only once. Activity calls are given as the source filed them.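 Rule for the calls: active = compounds giving half or more protection of infected cells from virus-caused growth loss, again on retest; inactive = the rest.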 Some results are limits rather than exact numbers.

As for `CC1=CN(c2ccccc2)S2=C1c1sc3c(c1N2c1ccc(Br)cc1)CCCC3` (configuration not stated), the EC50 is greater than 200 µM and the IC50 was greater than 200 µM.

In the case of `CC1CC(C)CN(Cc2cccnc2)C1` (configuration not stated), the result was inactive.

As to `Cc1ccsc1C(=S)Nc1ccc(Cl)c(/C=N/OC(C)C)c1`, the EC50 is 0.0575 µM and the IC50 stood at 10.7 µM.

For the compound `C(=C\c1ccccc1)/c1ccccc1`, the concentration for a half-maximal effect (EC50) is greater than 200 µM and the IC50 was greater than 200 µM.

Turning to `CCCc1c2c([nH]c(=O)c1C)C(=O)c1[nH]c(=O)c(C)c(CCC)c1C2=O`, the result was inactive.

With `CCCCCCc1cc2cc(-c3csc(CC#N)n3)c(=O)oc2cc1O`, the EC50 was greater than 200 µM and the IC50 is greater than 200 µM.

`COc1ccc2c3c(c(C(=O)c4ccccc4)oc13)CCC2`: the outcome was inactive.

`O=C(NC(=Nc1ccccc1)SCSC(=Nc1ccccc1)NC(=O)c1ccc(Cl)cc1)c1ccc(Cl)cc1`: the EC50 was greater than 100 µM and the half-maximal inhibitory concentration (IC50) is greater than 100 µM.

For the compound `CN1CCN(CCCN2c3ccccc3Sc3ccc(C(F)(F)F)cc32)CC1`, the EC50 was greater than 200 µM; the 50% inhibitory concentration (IC50) is 9.55 µM and 4.37 µM.

With `O=C1CC(c2ccco2)NC(=O)N1CCCl` (configuration not stated), the EC50 is greater than 200 µM and the IC50 is greater than 200 µM.

For the compound `C[CH2][Sn]([CH2]C)([O]C(=O)c1cccc(OC)c1)[O][Sn]([CH2]C)([CH2]C)[O]C(=O)c1cccc(OC)c1`, the EC50 was greater than 38.9 µM and the IC50 was 16.6 µM.

Consider `CC1(C)S[C@@H]2[C@H](NC(=O)C3(N)CCCCC3)C(=O)N2[C@H]1C(=O)O`, for which the EC50 was greater than 200 µM and the IC50 is greater than 200 µM.

For `COP1(=O)OC(C)=C(C)c2cccn21` (configuration not stated), the EC50 is greater than 60.3 µM and the IC50 was greater than 60.3 µM.

Take `O=S(=O)(c1ccccc1)N1CC2(CN(S(=O)(=O)c3ccccc3)c3ccccc31)CN(S(=O)(=O)c1ccccc1)c1ccccc1N(S(=O)(=O)c1ccccc1)C2`: the EC50 is greater than 200 µM and the IC50 is greater than 200 µM.

For the compound `O=C1c2ccc(O)c(O)c2C(=O)c2c(O)ccc(O)c21`, the EC50 was greater than 63.1 µM and the IC50 was determined as 11.7 µM.

For `O=Cc1c[nH]c2nccnc12`, the EC50 was greater than 380 µM and the IC50 came to 372 µM.

On to `COc1ccc(S(=O)(=O)N[C@H](C(=O)O)c2ccccc2)cc1`, for which the outcome was inactive.

Take `C=CCN1CC2CN=NC2(C#N)C1` (configuration not stated): the EC50 is greater than 200 µM and the IC50 is greater than 200 µM.

Take `CCOC(=O)C(Cc1ccc([N+](=O)[O-])cc1)NC(=O)CC1c2ccccc2-c2ccccc21` (configuration not stated): the EC50 is greater than 11.7 µM and the IC50 was greater than 11.7 µM.

In the case of `COC(=O)[C@@]12OC[C@]34[C@H]([C@@H](O)[C@@H]1O)[C@@]1(C)CC(=O)C(O)=C(C)[C@@H]1C[C@H]3OC(=O)[C@H](OC(=O)/C=C(\C)C(C)C)[C@@H]24`, the EC50 is greater than 123 µM and the half-inhibitory concentration (IC50) came to 0.0389 µM.

Take `Cc1ccc2c(c1)[nH]c1cc(C(F)(F)F)ccc1[p+]2=O` (configuration not stated): the EC50 was greater than 200 µM and the IC50 worked out at 26.3 µM.

On to `C/C(=C\C=C\C(C)C)C1CCC(C)(NC=O)CC1` (configuration not stated), for which the outcome was inactive.

In the case of `C[As+](C)(C)CC1OC(OCC(O)COS(=O)(=O)[O-])C(O)C1O` (configuration not stated), the outcome was inactive.

With `CC(C)N1C(=O)N(Cl)C2C1N(Cl)C(=O)N2Cl` (configuration not stated), the EC50 was greater than 200 µM and the IC50 was greater than 200 µM.

Usually EC50 stands for the midpoint of the concentration-response curve. As usually defined, the IC50 is the concentration that gives 50% inhibition. A high value points to weaker potency.

(Values after PubChem BioAssay AID179 (DTP/NCI, 2004).)
